Values quoted from earlier work as cited in US4942167A, “Pharmaceutical compositions of piroxicam in aqueous solutions and process for their preparation” (Chiesi Farmaceutici S.p.A., priority 1988, dated 1990).

Conditions: in words, background

CN1C(C(=O)Nc2ccccn2)=C(O)c2ccccc2S1(=O)=O [piroxicam, N-(2-pyridyl)-2-methyl-4-hydroxy-2H-1,2-benzothiazine-3-carboxyamido-1,1-dioxide]
water-solubility: poor
